Assay results reported in US20230201149A1, “METHODS OF ANTIPATHOGENIC TREATMENT” (priority 2020, published 2023).
Where two headings read alike, the source gives them in different places.

Key:
SARS-Cov-2 [1] = assay: Inhibition of replication of SARS-Cov-2; type: cell-based
SARS-Cov-2 [2] = settings: replication of SARS-Cov-2, cited from earlier work
[3] = system: COVID-19 coronavirus in human lung cells; assay: Antiviral potency in human lung cells; type: cell-based
Description: Earlier research of Nafamostat indicated it would not have sufficient concentration in the plasma to cause death of the virus. This was based on trialing drugs in monkey kidney cells. It was determined it would be more realistic to trial the drugs in human lung cells. The results were dramatic in that vastly different effects resulted.

[4] = system: COVID-19 coronavirus in human lung cells; settings: read-out: 50% kill rate IC50; cited from earlier work
COVID-infected cells = settings: cited from earlier work
[5] = elderly subjects, six months of 45 mg zinc/day as a gluconate; cited from earlier work
COVID-19 patients [6] = settings: cited from earlier work; for inflammatory markers (CRP and ferritin): during IV N-acetylcysteine administration
[7] = in vivo, cited from earlier work
COVID-19 patients [8] = settings: 50 treated patients, cited from earlier work
severe COVID patients = settings: cited from earlier work
COVID-19 = settings: cited from earlier work
ARDS patients = settings: intravenous, P<0.001; cited from earlier work
[9] = Alzheimer patients, 200 microg/day, cited from earlier work

## Cc1c(O)cccc1C(=O)N[C@@H](CSc1ccccc1)[C@H](O)CN1C[C@H]2CCCC[C@H]2C[C@H]1C(=O)NC(C)(C)C [nelfinavir, Nelfinavir]
SARS-Cov-2 [1]
  trough and peak serum concentration relative to EC50: three to six times higher
SARS-Cov-2 [2]; read-out: effective concentration for 50% inhibition (EC50)
  EC50: 1130 nM
SARS-Cov-2 [2]; read-out: effective concentration for 90% inhibition (EC90)
  EC90: 1760 nM

## N=C(N)c1ccc2cc(OC(=O)c3ccc(N=C(N)N)cc3)ccc2c1 [Nafamostat]
[3]
  decrease of IC50, human lung cells vs monkey kidney cells: 6000 fold
[3]; human lung cells
  potency relative to Remdesivir: 600 fold
[4]
  IC50: 2.2 nM
COVID-infected cells
  COVID-induced cytopathogenic effect (CPE): inhibits
COVID-infected cells; high levels of double-strand RNA in treated infected cells
  effect on the virus replication cycle: limited effects

## [Zn] [Zinc]
[5]
  concentration of plasma hsCRP, IL-6, MCP-1, VCAM-1, secretory phospholipase A2, MDA+HAE: decreases

## CC(=O)N[C@@H](CS)C(=O)O [N-acetylcysteine]
COVID-19 patients [6]; G6PD-deficient patient, IV NAC 600 mg every 12 h for six days
  bilirubin (total and direct): sustained reduction
COVID-19 patients [6]; G6PD-deficient patient, after IV NAC 30,000 mg over 24 h for two days, peak before 263
  ALT: 100 U/L
COVID-19 patients [6]; G6PD-deficient patient, after IV NAC 30,000 mg over 24 h for two days, peak before 338
  AST: 62 U/L
COVID-19 patients [6]; G6PD-deficient patient, sustained after the first dose
  NLR: decrease
COVID-19 patients [6]
  inflammatory markers (CRP and ferritin): significant overall reduction
COVID-19 patients [6]; listed as NAC
  inflammatory markers (CRP and ferritin): significantly reduced
COVID-19 patients [6]; of ten patients
  patients eventually discharged: Eight
COVID-19 patients [6]; ten respirator-dependent COVID-19 patients
  lung functions: improved
[7]; po
  bioavailability: 6-10%
[7]
  half-life, reduced N-acetylcysteine: about 2 h
  half-life, total N-acetylcysteine: about 6 h

## C=C1CC[C@H](O)C/C1=C/C=C1\CCC[C@]2(C)[C@@H]([C@H](C)CCCC(C)(C)O)CC[C@@H]12 [calcifediol]
COVID-19 patients [8]; oral, untreated 50%
  patients requiring admission to the ICU: 2%
COVID-19 patients [8]
  deaths: none died

## Heparin
Severe COVID patients; less severe cases
  benefit in less severe cases: no benefit
Severe COVID patients; most severe cases, reduced from 64%
  death rate: 40%

## Aprotinin
COVID-19
  increase of effectiveness by omeprazole: 2.7 fold

## [Se] [selenium]
ARDS patients
  drop in IL-1beta, R value: −0.624
  drop in IL-6, R value: 0.642
[9]; P<0.001
  serum high sensitivity C-reactive protein: reduced
[9]; P=0.001
  total glutathione: significantly increased
